Here are results for two substances from patent US12268727B2, “Bioactive polypeptides for improvements in plant protection, growth and productivity” (priority 2017, dated 2025).

In one assay the test system is soybean. Put plainly: Foliar application to soybean in growth room, plant height (non-stress, heat and water deficit stress). It is filed as in vivo. Conditions: 300 nM + 0.1% ALLIGARE SURFACE. The procedure: Ec.Flg22 (SEQ ID NO: 527) was applied to soybean (Beck's 297NR).
Plant height (cm) was measured just prior to the foliar application delivered at 3 weeks and then again 2 weeks later when the plants were 5-weeks-old. Two replicate trials were conducted using 18 plants per trial.
Soybean plants were grown as described in Example 6. The At.PSKα polypeptide (SEQ ID NO: 598) was applied as a foliar spray to the plants at the V1-V4 stage. Soybean plants treated with foliar applications of At.PSKα and control plants treated with water and surfactant alone were then grown in conditions described in Examples 7-9 that produced a non-stress and stress (heat and water deficit) environments. Table 37 describes the percentage change or increase in height reported for soybean plants treated with At.PSKα as a foliar spray at the V1-V4 growth stage.
RHPP bioactive priming polypeptide (SEQ ID NO: 600) was also applied as foliar treatment to R1 stage hybrid soybean (Beck's 297R4) with 0.1% (v/v) non-ionic surfactant ([…] SURFACE) using a spray bottle delivering approximately 1.2 ml/plant. This experiment was performed to look at the effects of RHPP on plant growth and was conducted using a total of 18 plants per treatment group. […] R1 stage soybean plants were treated with nothing (non-treated control), […] SURFACE surfactant applied at a concentration of 0.1% (v/v) or the RHPP polypeptide (300 nM) applied in combination with […] SURFACE surfactant (0.1% v/v). Height for each plant was recorded at the time of spray and again at 16 days post foliar application and average growth parameters were compared between foliar treatments (Table 39).

Assay [1] has as its system reactive oxygen species (ROS) production in soybean leaf tissue. Put plainly: ROS activity assay in soybean leaf tissue (luminol/horseradish peroxidase, RLU). The settings on record: for Fold increase over negative control: vs mock (water). It is filed as cell-based.
Assay [2] deals with reactive oxygen species (ROS) production in tomato leaf tissue. Put plainly: ROS activity assay in tomato leaf tissue. In kind it is cell-based. The procedure:
Tomato leaves were excised from 4-week-old plants using a cork borer to generate 4 mm disks. Each disc was cut in half using the edge of a razor blade, and then each disc half was floated on 150 μL of water in a 96-well plate to rest overnight. The next day, the water was removed from each well just prior to polypeptide treatment. The Flg polypeptides as described in Table 66 were added to water to bring them to a final concentration of 5 nM (Table 67) and 100 nM (Table 68) in solution with luminol and HRP before adding to each treatment well. To maintain activity, the polypeptides were stored in small aliquots to avoid multiple freezing and thawing. All dilutions to obtain working concentrations were done in ultrapure water. Polypeptide solutions were stored at −20° C. for short term usage or −80° C. for long term storage. RLU values and relative ROS activity (Tables 67, 68) is reported as the average of 4 measurements.

In assay [3] the test system is reactive oxygen species (ROS) production in Kiwi 'Hayward' leaf petioles. Put plainly: ROS activity assay in kiwi leaf petioles. It is filed as cell-based, Actinidiae deliciosa. The settings on record: 100 nM peptide; Kiwi 'Hayward' leaf petiole slices; 40 minutes time course. The procedure:
To test the sensitivity of kiwi leaves to 22-amino acid fragments of flagellin, 1 mm slices were cut through Actinidiae deliciosa Kiwi ‘Hayward’ leaf petioles and floated in 150 μL of water in a 96-well plate, with one slice per well. […] In two independent experiments, a total of 6 kiwi leaf petiole samples were treated with each Flg22 polypeptide in Table 94. The average total RLU and standard error of the means (SEM) was calculated for each treatment. A two-tailed T-test was used to determine significance at the 90% confidence level (P<0.1) between treatments. Relative ROS production was determined for each polypeptide in comparison to total RLUs for the 100 nM Bt.4Q7Flg22 control.

For assay [4], the system named is reactive oxygen species (ROS) production in Arabidopsis leaf tissue. Put plainly: ROS activity assay in Arabidopsis leaf tissue. It is filed as cell-based, Arabidopsis thaliana. Conditions: 100 nM each polypeptide, negative control (water) 82896. Here is the method: Elf18 and Elf26 polypeptides derived from the consensus Bacillus cereus Elongation Factor-TU (EF-Tu) protein were tested for ability to produce a ROS response in corn (hybrid 5828 YX), soy (variety Morsoy), and Arabidopsis thaliana. Polypeptides were synthesized by Genscript USA (Piscataway, N.J.) using standard solid-phase synthesis methods and provided as a lyophilized powder with greater than or equal to 70% purity. Dry powder was re-suspended to a concentration of 10 mM in ultrapure water, and then serially diluted in ultrapure water to the concentrations tested in the ROS assay in Table 98.
For the ROS assay, Arabidopsis leaves were excised from 4-week-old plants, and using a cork borer 4 mm disks were removed from the leaves. Each disc was cut in half using the edge of a razor blade, and then each disc half was floated on 150 μL of water abaxial side touching the water in a 96-well plate to rest overnight. The next day, the water was removed from each well just prior to polypeptide treatment. RLU values and relative ROS activity was reported as the average of 4 measurements.

The next assay concerns Cercospora. Put plainly: Cercospora leaf blight of soybean, symptom rating in US Midwest fields. It is filed as in vivo, Cercospora kikuchii. Conditions: for early symptom development (leaf area affected): 4 weeks, V3 foliar; for symptom ranking: 8 weeks; for Percent of Disease Area covering plant, 4 weeks Post Application / Disease Area, 8 weeks Post Application: foliar at V3; for Percent of Disease Area covering plant, 4 weeks Post Application: control 30%; for Disease Area, 8 weeks Post Application: control 50%.

Another assay deals with Cercospora brassicicola. Put plainly: White leaf spot on kale, disease score and plant weight. In kind it is in vivo. Here is the method: The infected kale plants had received no previous foliar treatments for fungal disease prevention. […] A single person scored all the plants within the trial area, and then evenly distributed the plants by disease score between the treatments in Table 64, with 6 replicated blocks of 6 plants per treatment (total=36 plants per treatment). […] Three weeks after foliar treatments, the plants were scored used the same disease severity rubric. The change in disease score was calculated for each plant, and the average change in disease score was determined per treatment. Plants were harvested four days after assessing disease severity, and yield was measured as plant weight (grams). Outlying values with weights that were either 50% below or 50% above the median weight for the trial were excluded from the dataset.

The mark [5] stands for this setting: soybean leaf tissue, Bt.4Q7Flg22 52.2 nM without surfactant.
The mark [6] stands for this setting: soybean leaves, Bt.4Q7Flg22 100 nM, No PROXEL Preservative Added.

As for “GGIRAAPTGNER (Glycine max) [RHPP, Root Hair Promoting Peptide from Glycine max]”, in the assay with soybean (R1, 16 days post application), the “plant height and change in plant height vs surfactant alone and non-treated” value is listed as “increased plant growth (plant height)”. Further, in the assay with soybean (soybean Beck's 297R4, R1 stage, 16 days post foliar application, n = 18), the “Height (cm)” value worked out at 19.9 cm. Moreover, the “Change in height (cm)” value in the assay with soybean (soybean Beck's 297R4, R1 stage, spray to 16 days post application, n = 18) was determined as 4.6 cm.

Turning to “Bt.4Q7Flg22: Flg22 polypeptide (22 amino acids) from flagellin of Bacillus thuringiensis strain 4Q7 (DRLSSGKRINSASDDAAGLAIA; listed as Bacillus thuringiensis)”, in assay [1] (52.2 nM Bt.4Q7Flg22, NIS90:10 0.25% or 0.5% v/v, Silwet-L77 0.025% or 0.1% v/v), the “fold-increase in ROS production over mock-treated control” value amounted to 6.8 ×. The “fold increase in RLU over mock treatment” value in assay [1] (100 nM Bt.4Q7Flg22, Proxel compatibility test) is 17.0 ×. For the same substance, the “Avg. Activity (%) Soybean (297 R4) 100 nM polypeptide” value in assay [1] (Table 33, RLU relative to native Bt.4Q7Flg22 = 100) was found to be 100%. Also, in assay [1] (Table 35, single polypeptides and combinations, Bt.4Q7Flg22 = 100), the “Avg. Activity (%) Soybean (297 R4) 100 nM polypeptide” value was found to be 100%. For the same substance, the “relative ROS activity” value in assay [1] (soy leaf tissue, 10 nM) is on record as 0.04 ×. The “Polypeptide Concentration (nM) for 5 × 10^4 total RLU production” value in assay [1] (soybean leaf discs, from best-fit regression, Table 72 data set) is given as 31.4 nM. For the same substance, in assay [1] (setting [5]), the “Average RLU values” is listed as 350503 RLU and the “Fold increase over negative control” value is listed as “(6.8X)”. Further, in assay [1] (setting [6]), the “Average RLU values” was determined as 81887 RLU and the “Fold increase over negative control” value was “(17.0X)”. Also, in assay [2] (5 nM), the ROS response result is reported as “very low ROS response”. The ROS response result in assay [2] (100 nM) is on record as “high response”. For the same substance, in assay [2] (tomato leaf discs, 5 nM, average of 4 measurements), the “Average RLU value (5 nM Flg polypeptide)” value turned out to be 33118 RLU. For the same substance, the “Average RLU value with 100 nM Flg polypeptide” value in assay [2] (tomato leaf discs, 100 nM (each, in the combination)) is given as 2,118,932 (−) RLU. The “Average Total Relative Light Units (RLUs); SEM in parentheses” value in assay [3] is given as 47,457 RLU. For the same substance, the “Average RLU value” in assay [4] is 258073 RLU. In the assay with Cercospora (0.33 Fl. oz/Ac), the “early symptom development (leaf area affected)” value is recorded as 20%; the symptom ranking entry is on record as “comparable to the non-treated control plants”; the “Percent of Disease Area covering plant, 4 weeks Post Application” value is reported as 20%; the “Disease Area, 8 weeks Post Application” value came to 50%. Moreover, in the assay on Cercospora (4.0 Fl. oz/Ac), the “early symptom development (leaf area affected)” value is “approximately 5%”; the symptom ranking result is “considerably less apparent symptoms and damage”; the “Percent of Disease Area covering plant, 4 weeks Post Application” value is 5%; the “Disease Area, 8 weeks Post Application” value is given as 35%. Also, the “Average Change in Disease Score” value with Cercospora brassicicola (improvement on the 1-5 scale, surfactant only control 0.6 point improvement) amounted to 1.1 point. In the assay with Cercospora brassicicola (infected kale, harvested about 3.5 weeks after foliar treatment), this substance returned an average plant weight of 15.1 g. The “Yield (Average plant weight in grams)” value in the assay with Cercospora brassicicola (infected kale, Bt.4Q7Flg22 100 μM 12.0 Fl. oz/Ac, Liquid Copper Fungicide label rate 54.45 Fl oz/Ac) was 15.1 grams. Also, the “Yield Relative to control (%)” value in the assay on Cercospora brassicicola (infected kale, surfactant only control 100%, Bt.4Q7Flg22 12.0 Fl. oz/Ac, copper fungicide 54.45 Fl oz/Ac) is given as “(103%)”. For the same substance, the “average improvement in disease scoring over control (1-5 rubric)” value in the assay with Cercospora brassicicola (three weeks after foliar treatment) was 0.5 points.
